Measurements: patent publication US12319694B2, “Heterocyclic nitrogen-containing purine derivatives, pharmaceutical preparations containing these derivatives and their use in neuroprotection” (UNIVERZITA PALACKEHO, priority 2019, dated 2025)
Several values for one entry are separate records, joined by “and”; a condition that tells them apart may be missing. Equal values may be shown once.

Columns and labels:
[1] = Calcein AM viability test on ATRA-differentiated SH-SY5Y cells; assay type: cell-based, human; details: human, ATRA-differentiated SH-SY5Y neuroblastoma cells, DMSO control = 100%, read-out: % of viability, relative to control; for viability at 24 h, 0.1 µM: 0.1 μM compound; for viability at 24 h, 1 µM: 1 μM compound; for viability at 24 h, 10 µM: 10 μM compound
Procedure: (§1) The SH-SY5Y human neuroblastoma cell line obtained as kind gift from Walter d'Acunto (originally purchased from ATCC—American Type Culture Collection (Manassas, VA, USA) was cultivated in Dulbecco's modified Eagle's Medium and Ham's F12 Nutrient Mixture (DMEM:F-12, 1:1), supplemented with 10% fetal bovine serum (FBS) and 1% penicillin and streptomycin at 37° C. in a humidified atmosphere 5% CO2, 95% air in passage limit up to ATCC+15. The assay was performed in 96-well microplate with 7000 SH-SY5Y cells per well. Next day, SH-SY5Y underwent all-trans retinoic acid (ATRA)-differentiation for 48 h (ATRA 10 μM). After 48 h, old DMEM/F12 media was removed by fresh media containing tested compounds at 0.1, 1 and 10 μM concentrations for 24 h. The tested compounds were dissolved in DMSO were added into the medium. The maximum concentration of DMSO in media was kept below 0.1% (v/v). The cell viability was measured by Calcein AM (1 mg/ml ThermoFisher) viability assay. Solution of Calcein AM in PBS (0.5 uM) was pipetted to cells and incubated for 50 minutes. After that the fluorescence was measured at 488/517 nm (excitation/emission) using microplate reader Infinite M200 (TECAN). Calcein AM assay is based on the dye-intracellular-esterase cleavage of non-fluorescent dye (Calcein AM) by living cells to fluorescent dye (Calcein), while dyeing cells that lose such ability. The values in Table 4 show % of viability, relative to control of all tested compounds. The control (medium with DMSO, <0.1% (v/v)) was postulated as 100% viability (see the first line of the table).

[2] = tested on: SH-SY5Y human neuroblastoma cell line (differentiated phenotype); assay: Viability test, salsolinol-induced model of Parkinson's disease in differentiated SH-SY5Y (Calcein AM); assay type: cell-based; details: 24 h
Procedure: as §1
Similarly, to the previous test the assay was performed in 96-well microplates with 7000 SH-SY5Y cells per well. Day after the seeding of cells, SH-SY5Y underwent all-trans retinoic acid (ATRA)-differentiation for 48 h (ATRA 10 μM). After 48 h, old DMEM/F12 media was removed by fresh media containing 500 μM dopaminergic neurotoxin Salsolinol (SAL) without or with tested compounds at 0.1, 1 and 10 μM concentrations. […] After 24 h the cell viability was measured by Calcein AM viability assay.

[3] = tested on: SH-SY5Y human neuroblastoma cell line; assay: Oxidative stress measurement (dihydroethidium, superoxide) in SH-SY5Y, salsolinol-induced model of PD; assay type: cell-based; details: 6 h; for activity at 1 µM: 1 μM compound with SAL 500 μM; for activity at 1 µM / activity at 10 µM: read-out: Oxidative stress (% of control); for reduction of oxidative stress induced by Salsolinol (in words): SAL 500 μM, compounds 1 and 10 μM
Procedure: The assay was performed in 96-well microplate with 7000 cells/well. Next day, SH-SY5Y underwent differentiation protocol for 48 h see above. Treatment procedure remained the same as in previous section (Cell treatment and viability/cytotoxicity assays). Additionally, oxidative stress (OS) inducers such as 6-hydroxydopamine (6-OHDA) and glutamate (Glu) alone were used as […]. Negative controls determined threshold of excessive OS. […] After 30 minutes, DHE was read at 500 nm/580 nm (excitation/emission). DHE is cell permeable dye which is selective toward superoxide radical detection.

[4] = Radical scavenging activity by ORAC assay; details: NAUC relative to trolox; mean ± SD (n = 3)
Procedure: The ability of compounds to scavenge free radicals in vitro was determined by Oxygen Radical Absorbance Capacity (ORAC) method. In brief, fluorescein (100 μL, […]) and 25 μL of tested compound solution were added into each working well in a 96-well microplate preincubated at 37° C. Thereafter, 25 μL of 250 mM 2,2′-azobis(2-amidino-propan)dihydrochloride (AAPH) was quickly added, microplate was shaken for 5 s and the fluorescence (Ex. 485 nm, Em. 510 nm) was read every 3 min over 90 min by using microplate reader Infinite 200 (TECAN, Switzerland). The NAUC value (Net Area Under Curve) was used to express antioxidant activity relative to trolox (hydrophilic equivalent of vitamin E postulated as a standard). Substances with an ORAC value greater than 0 actively trap free radicals.

[5] = tested on: Nrf2; assay: Activation of Nrf2-dependent expression, EpRE-LUX reporter cell line; assay type: cell-based; details: 24 h; tested at 100, 10, 1 and 0.1 μM, concentration of the printed value not stated; mean ± SD (n = 3)
Procedure: The ability of compounds to activate Nrf2-dependent expression was determined by EpRE-LUX reporter cell line. In brief, compounds at 100, 10, 1 and 0.1 μM concentrations of the tested compounds were incubated for 24 h with the cells. After cells lysis (10 mM Tris, 2 mM DTT), a buffer containing 0.2 mM luciferin was added to start luminescent reaction. The increase in luminescence was measured with microplate reader Infinite M200 (TECAN). Compounds with Nrf2 value higher than 0 are strong Nrf2 activators and thus will be useful agents for the treatment of neurodegenerative diseases associated with oxidative stress.

[6] = 0.1 μM compound with 500 μM Salsolinol
[7] = 1 μM compound with 500 μM Salsolinol
[8] = 10 μM compound with 500 μM Salsolinol
[9] = Homo sapiens, SH-SY5Y, 10 μM compound with SAL 500 μM

Row | Structure (SMILES) | viability at 24 h, 0.1 µM [1] [%] | viability at 24 h, 1 µM [1] [%] | viability at 24 h, 10 µM [1] [%] | Neuroprotective effect (% of control) [2, 6] | Neuroprotective effect (% of control) [2, 7] | Neuroprotective effect (% of control) [2, 8] | activity at 1 µM ([3]; Homo sapiens, SH-SY5Y) [%] | activity at 10 µM [3, 9] [%] | ORAC (compound/trolox) [4] [compound/trolox] | Nrf2 (relative luminiscence) [5] [relative luminiscence] | reduction of oxidative stress induced by Salsolinol (in words) [3] | activity at 30 µM ([3]; Homo sapiens, SH-SY5Y, 6-OHDA 30 μM alone (negative control)) [%] | Oxidative stress (% of control) ([3]; 10 μM compound with SAL 500 μM) | Oxidative stress (% of control) ([3]; Glu 160 mM alone (negative control)) | decrease in percentages of alive cells ([2]; 500 μM Salsolinol alone) [%] | Oxidative stress (% of control) ([3]; Salsolinol 500 μM alone, DMSO control = 100%)
1 | c1ccc(Cn2cnc3c(N4CCOCC4)nc(N4CCOCC4)nc32)cc1 [Compound 4, 2,6-dimorpholino-9-benzylpurine] | 106 | 113 | 146 | 1.70 % of control | 8.11 % of control | 21.12 % of control | 106 | 155 | 0.007 ± 0.002 | 0.19 ± 0.02 |  |  |  |  |  | 
2 | c1ccc(Cn2cnc3c(N4CCSCC4)nc(N4CCSCC4)nc32)cc1 [Compound 5, 9-benzyl-2,6-dithiomorpholino-9H-purine] | 106 | 126 | 129 | 7.03 % of control |  | 19.89 % of control | 121 | 135 | 0.016 ± 0.001 | 0.17 ± 0.06 | highest potency toward the reduction of oxidative stress |  |  |  |  | 
3 | NCCc1cc(O)c(O)cc1O [Compound 6-OHDA, 6-hydroxydopamine, reference compound] |  |  |  |  |  |  |  |  |  |  |  | 215 |  |  |  | 
4 | Oc1cccc(Cn2cnc3c(N4CCCC4)nc(N4CCCC4)nc32)c1 [Compound 26, 9-(3-Hydroxybenzyl)-2,6-di(pyrrolidin-1-yl)-9H-purine] | 108 | 120 | 142 | 4.90 % of control | 14.43 % of control | 20.71 % of control | 107 | 142 | 0.126 ± 0.018 | 0.33 ± 0.06 |  |  |  |  |  | 
5 | Oc1ccc(Cn2cnc3c(N4CCCC4)nc(N4CCCC4)nc32)cc1 [Compound 30, 9-(4-hydroxybenzyl)-2,6-di(pyrrolidin-1-yl)-9H-purine] | 99.5 | 111 | 123 | 10.62 % of control |  | 26.41 % of control | 95.9 | 97.4 | 0.422 ± 0.034 | 0.29 ± 0.11 | highest potency toward the reduction of oxidative stress |  |  |  |  | 
6 | Clc1cccc(Cl)c1Cn1cnc2c(N3CCCC3)nc(N3CCCC3)nc21 [Compound 74, 9-(2,6-Dichlorobenzyl)-2,6-di(pyrrolidine-1-yl)-9H-purine] | 111 | 138 | 152 | 8.57 % of control | 20.24 % of control | 22.35 % of control | 126 | 179 |  | 0.38 ± 0.08 |  |  |  |  |  | 
7 | c1ccc(Cn2cnc3c(N4CCCC4)nc(N4CCCCC4)nc32)cc1 [Compound 77, 9-Benzyl-2-(piperidin-1-yl)-6-(pyrrolidin-1-yl)-9H-purine] | 107 | 118 | 117 | 4.64 % of control | 12.11 % of control | 13.8 % of control | 118 | 127 | 0.028 ± 0.001 | 0.16 ± 0.04 |  |  |  |  |  | 
8 | c1ccc(Cn2cnc3c(N4CCCCC4)nc(N4CCCC4)nc32)cc1 [Compound 78, 9-Benzyl-6-(piperidin-1-yl)-2-(pyrrolidin-1-yl)-9H-purine] | 106 | 120 | 134 | N/A (N/A = no protection) | 17.95 % of control | N/A (N/A = no protection) | 136 | 238 | 0.071 ± 0.005 | 0.23 ± 0.03 |  |  | OS level reaching threshold of negative controls |  |  | 
9 | CC(=O)N(O)CCCCCNC(=O)CCC(=O)N(O)CCCCCNC(=O)CCC(=O)N(O)CCCCCN [Deferoxamine, reference compound] |  |  |  | 1.43 % of control | 4.86 % of control | 10.52 % of control |  | 101 |  |  |  |  |  |  |  | 
10 | COc1cc2c(cc1OC)C(=O)C(CC1CCN(Cc3ccccc3)CC1)C2 (stereo not shown) [Donepezil, reference compound] |  |  |  | 2.76 % of control | 6.73 % of control | 14.25 % of control |  |  |  |  |  |  |  |  |  | 
11 | N[C@@H](CCC(=O)O)C(=O)O [Glu, glutamate, reference compound] |  |  |  |  |  |  |  |  |  |  |  |  |  | 268.62 % of control |  | 
12 | C[C@@H]1NCCc2cc(O)c(O)cc21 [Salsolinol, reference compound] |  |  |  |  |  |  |  |  |  |  |  |  |  |  | 30.7 | 335.4 % of control and 335.36 % of control
13 | Nc1nc(NCCc2ccc(O)cc2)nc2nc(-c3ccco3)nn12 [ZM241385, reference compound] |  |  |  | 1.95 % of control | 7.03 % of control | 9.31 % of control |  | 102 |  |  |  |  |  |  |  | 
